# In PubChem BioAssay (NCI):
#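 1) Cells in 96-well plates. 2) Compound, 48 h, 5 concentrations. 3) Linear interpolation between surrounding doses. 4) Unreached endpoint = highest concentration. Abbreviation: GI50, concentration required for 50% inhibition of growth. TGI marks complete inhibition of growth.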
# Assays:
# Assay in all cases: inhibition of tumour cell growth, NCI panel, 48 h
# PC-3 prostate = system: PC-3 prostate
# LOX IMVI melanoma = system: LOX IMVI melanoma
# MOLT-4 leukemia = system: MOLT-4 leukemia
# HS 578T breast = system: HS 578T breast
# A498 renal = system: A498 renal
# SNB-19 CNS = system: SNB-19 CNS
# SN12C renal = system: SN12C renal
# SW-620 colon = system: SW-620 colon
# BT-549 breast = system: BT-549 breast
# NCI-H23 lung = system: NCI-H23 lung
# DU-145 prostate = system: DU-145 prostate
# HT29 colon = system: HT29 colon
# NCI-H522 lung = system: NCI-H522 lung
# UO-31 renal = system: UO-31 renal
# MCF7 breast = system: MCF7 breast
# OVCAR-5 ovarian = system: OVCAR-5 ovarian
# U251 CNS = system: U251 CNS
# HCT-116 colon = system: HCT-116 colon
# OVCAR-8 ovarian = system: OVCAR-8 ovarian
# M14 melanoma = system: M14 melanoma
# CCRF-CEM leukemia = system: CCRF-CEM leukemia
# HCT-15 colon = system: HCT-15 colon
# IGROV1 ovarian = system: IGROV1 ovarian
# 786-0 renal = system: 786-0 renal
# SK-MEL-5 melanoma = system: SK-MEL-5 melanoma
# SF-268 CNS = system: SF-268 CNS
# UACC-62 melanoma = system: UACC-62 melanoma
# HCC-2998 colon = system: HCC-2998 colon
# SF-295 CNS = system: SF-295 CNS
# NCI/ADR-RES ovarian = system: NCI/ADR-RES ovarian
# ACHN renal = system: ACHN renal
# SNB-75 CNS = system: SNB-75 CNS
# KM12 colon = system: KM12 colon
# T-47D breast = system: T-47D breast
# NCI-H226 lung = system: NCI-H226 lung
# UACC-257 melanoma = system: UACC-257 melanoma
# K-562 leukemia = system: K-562 leukemia
# OVCAR-3 ovarian = system: OVCAR-3 ovarian
# SF-539 CNS = system: SF-539 CNS
# RPMI-8226 leukemia = system: RPMI-8226 leukemia
# HOP-62 NSCLC = system: HOP-62 NSCLC
# HL-60(TB) leukemia = system: HL-60(TB) leukemia
# CAKI-1 renal = system: CAKI-1 renal
# EKVX NSCLC = system: EKVX NSCLC
# SK-MEL-28 melanoma = system: SK-MEL-28 melanoma
# SK-MEL-2 melanoma = system: SK-MEL-2 melanoma
# NCI-H460 lung = system: NCI-H460 lung
# MDA-MB-435 = system: MDA-MB-435
# COLO 205 colon = system: COLO 205 colon
# MDA-MB-231 breast = system: MDA-MB-231 breast
# OVCAR-4 ovarian = system: OVCAR-4 ovarian
# A549 NSCLC = system: A549 NSCLC
# SK-OV-3 ovarian = system: SK-OV-3 ovarian
# SR leukemia = system: SR leukemia
# RXF 393 renal = system: RXF 393 renal
# TK-10 renal = system: TK-10 renal
# MALME-3M melanoma = system: MALME-3M melanoma
smiles,measurement,setting,value
COc1ccc2c3ccnc(C(F)(F)F)c3n(CCCCN)c2c1,GI50,PC-3 prostate,1.96 µM
same,TGI,PC-3 prostate,13.9 µM
same,GI50,LOX IMVI melanoma,4.38 µM
same,TGI,LOX IMVI melanoma,17 µM
same,GI50,MOLT-4 leukemia,3.93 µM
same,TGI,MOLT-4 leukemia,12.8 µM
same,GI50,HS 578T breast,4.09 µM
same,TGI,HS 578T breast,22.8 µM
same,GI50,A498 renal,5.25 µM
same,TGI,A498 renal,18 µM
same,GI50,SNB-19 CNS,12.2 µM
same,TGI,SNB-19 CNS,30.7 µM
same,GI50,SN12C renal,10.5 µM
same,TGI,SN12C renal,28.7 µM
same,GI50,SW-620 colon,3.28 µM
same,TGI,SW-620 colon,14.6 µM
same,GI50,BT-549 breast,3.04 µM
same,TGI,BT-549 breast,12.5 µM
same,GI50,NCI-H23 lung,8.65 µM
same,TGI,NCI-H23 lung,22.2 µM
same,GI50,DU-145 prostate,9.04 µM
same,TGI,DU-145 prostate,21.2 µM
same,GI50,HT29 colon,4.01 µM
same,TGI,HT29 colon,15.8 µM
same,GI50,NCI-H522 lung,6.22 µM
same,TGI,NCI-H522 lung,21.4 µM
same,GI50,UO-31 renal,1.6 µM
same,TGI,UO-31 renal,8.36 µM
same,GI50,MCF7 breast,4.61 µM
same,TGI,MCF7 breast,17.4 µM
same,GI50,OVCAR-5 ovarian,8.62 µM
same,TGI,OVCAR-5 ovarian,22.4 µM
same,GI50,U251 CNS,7.31 µM
same,TGI,U251 CNS,21.2 µM
same,GI50,HCT-116 colon,3.84 µM
same,TGI,HCT-116 colon,13.4 µM
same,GI50,OVCAR-8 ovarian,8.95 µM
same,TGI,OVCAR-8 ovarian,26.4 µM
same,GI50,M14 melanoma,4.93 µM
same,TGI,M14 melanoma,17.3 µM
same,GI50,CCRF-CEM leukemia,9.02 µM
same,TGI,CCRF-CEM leukemia,47.8 µM
same,GI50,HCT-15 colon,10.8 µM
same,TGI,HCT-15 colon,25 µM
same,GI50,IGROV1 ovarian,3.39 µM
same,TGI,IGROV1 ovarian,14.5 µM
same,GI50,786-0 renal,7.09 µM
same,TGI,786-0 renal,19.4 µM
same,GI50,SK-MEL-5 melanoma,2.83 µM
same,TGI,SK-MEL-5 melanoma,9.05 µM
same,GI50,SF-268 CNS,6.62 µM
same,TGI,SF-268 CNS,21.5 µM
same,GI50,UACC-62 melanoma,10.8 µM
same,TGI,UACC-62 melanoma,23.2 µM
same,GI50,HCC-2998 colon,5.23 µM
same,TGI,HCC-2998 colon,16.7 µM
same,GI50,SF-295 CNS,6.71 µM
same,TGI,SF-295 CNS,22.6 µM
same,GI50,NCI/ADR-RES ovarian,8.6 µM
same,TGI,NCI/ADR-RES ovarian,28.1 µM
same,GI50,ACHN renal,4.58 µM
same,TGI,ACHN renal,16.1 µM
same,GI50,SNB-75 CNS,2.19 µM
same,TGI,SNB-75 CNS,12.8 µM
same,GI50,KM12 colon,5.1 µM
same,TGI,KM12 colon,17.6 µM
same,GI50,T-47D breast,6.86 µM
same,TGI,T-47D breast,23.8 µM
same,GI50,NCI-H226 lung,7.42 µM
same,TGI,NCI-H226 lung,30.5 µM
same,GI50,UACC-257 melanoma,3.02 µM
same,TGI,UACC-257 melanoma,8.41 µM
same,GI50,K-562 leukemia,5.73 µM
same,TGI,K-562 leukemia,22.8 µM
same,GI50,OVCAR-3 ovarian,3.82 µM
same,TGI,OVCAR-3 ovarian,15.3 µM
same,GI50,SF-539 CNS,6.58 µM
same,TGI,SF-539 CNS,20.2 µM
same,GI50,RPMI-8226 leukemia,3.05 µM
same,TGI,RPMI-8226 leukemia,15.8 µM
same,GI50,HOP-62 NSCLC,8.54 µM
same,TGI,HOP-62 NSCLC,21.3 µM
same,GI50,HL-60(TB) leukemia,4.78 µM
same,TGI,HL-60(TB) leukemia,20.1 µM
same,GI50,CAKI-1 renal,4.66 µM
same,TGI,CAKI-1 renal,21.4 µM
same,GI50,EKVX NSCLC,5.42 µM
same,TGI,EKVX NSCLC,23.6 µM
same,GI50,SK-MEL-28 melanoma,1.92 µM
same,TGI,SK-MEL-28 melanoma,3.82 µM
same,GI50,SK-MEL-2 melanoma,16.8 µM
same,TGI,SK-MEL-2 melanoma,35.7 µM
same,GI50,NCI-H460 lung,5.18 µM
same,TGI,NCI-H460 lung,17.7 µM
same,GI50,MDA-MB-435,5.69 µM
same,TGI,MDA-MB-435,20.7 µM
same,GI50,COLO 205 colon,2.74 µM
same,TGI,COLO 205 colon,12.1 µM
same,GI50,MDA-MB-231 breast,8.12 µM
same,TGI,MDA-MB-231 breast,21.7 µM
same,GI50,OVCAR-4 ovarian,11.7 µM
same,TGI,OVCAR-4 ovarian,25.5 µM
same,GI50,A549 NSCLC,11.6 µM
same,TGI,A549 NSCLC,26.3 µM
same,GI50,SK-OV-3 ovarian,10.5 µM
same,TGI,SK-OV-3 ovarian,25.3 µM
same,GI50,SR leukemia,2.64 µM
same,TGI,SR leukemia,9.52 µM
same,GI50,RXF 393 renal,2.3 µM
same,TGI,RXF 393 renal,6.93 µM
same,GI50,TK-10 renal,7.06 µM
same,TGI,TK-10 renal,19.3 µM
same,GI50,MALME-3M melanoma,2.02 µM
same,TGI,MALME-3M melanoma,5.36 µM
